Results published in article PMC8167039, “A Comparative Study of Human and Zebrafish Pregnane X Receptor Activities of Pesticides and Steroids Using In Vitro Reporter Gene Assays” (Frontiers in Endocrinology, 2021).
Read-outs that look alike come from different tables or passages of the source.

Legend:
hPXR = biological target: T1, hPXR (Homo sapiens, UniProt O75469); test: HG5LN Gal4-hPXR luciferase reporter gene assay, agonism
T1 sequence (O75469 146-433 limits assumed): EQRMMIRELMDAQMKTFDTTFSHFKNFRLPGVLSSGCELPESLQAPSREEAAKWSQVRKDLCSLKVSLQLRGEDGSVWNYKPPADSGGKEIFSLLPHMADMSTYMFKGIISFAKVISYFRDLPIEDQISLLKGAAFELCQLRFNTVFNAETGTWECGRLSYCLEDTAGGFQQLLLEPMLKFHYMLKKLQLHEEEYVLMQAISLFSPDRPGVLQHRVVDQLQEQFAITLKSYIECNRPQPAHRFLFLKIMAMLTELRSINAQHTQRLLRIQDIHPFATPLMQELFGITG
Procedure: (§1) The cell lines used in this study are listed in Supplementary Table 3 . The HG5LN, HG5LN Gal4-hPXR and HG5LN Gal4-zfPXR cell lines were previously described ([19]). Briefly, HeLa cells stably transfected with the GAL4RE5-βGlobin-Luc-SVNeo plasmid (HG5LN cell line) ([15]). HG5LN cells were stably transfected with the pSG5-GAL4(DBD)-hPXR(LBD)-puro or pSG5-GAL4(DBD)-zfPXR(LBD)-puro plasmids.
(§2) HG5LN cells were cultured in Dulbecco’s Modified Eagle Medium: Nutrient Mixture F-12 (D-MEM/F-12) containing phenol red and 1 g/L glucose and supplemented with 5% fetal bovine serum, 100 units/mL of penicillin and 100 µg/mL of streptomycin supplemented with 1 mg/mL geneticin in a 5% CO2 humidified atmosphere at 37°C. HG5LN GAL4-hPXR and GAL4-zfPXR were cultured in the same culture medium supplemented with 0.5 µg/mL puromycin.
(§3) The ability of chemicals to modulate the hPXR and zfPXR was investigated in HG5LN, HG5LN-hPXR, HG5LN-zfPXR, and ZFL-zfPXR cell lines after exposure to serial dilutions of the compounds and measurement of luciferase activity. […] Briefly, cells were seeded in 96-well white opaque flat bottom microplates at 0.5 10^5 cells per well in culture medium. […] Cells were then exposed to a concentration range of the compounds by using an automated workstation (Biomek 3000, Beckman Coulter). The final concentration of DMSO in the well never exceeds 0.1% (v/v). After 16h of exposure, medium was removed and 50 µL of test medium containing 0.3 mM D-luciferin were added per well. After 5 min, the production of light was assessed in living cells using microplate reader (MicroBeta, PerkinElmer SAS, Courtabœuf, France).
(§4) In the transactivation assay, each compound was tested at various concentrations in three independent experiments at least. For each experiment, tests were performed in quadruplicates for each concentration, and data are expressed by means values with standard deviations. […] This allowed to determine EC50 and IC50 values of tested chemicals.

zfPXR [1] = biological target: T2, zfPXR (Danio rerio, UniProt A5WYG8); test: HG5LN Gal4-zfPXR luciferase reporter gene assay, antagonism (coexposure with clotrimazole); type: cell-based, zebrafish
T2 sequence (A5WYG8 entry or part of it): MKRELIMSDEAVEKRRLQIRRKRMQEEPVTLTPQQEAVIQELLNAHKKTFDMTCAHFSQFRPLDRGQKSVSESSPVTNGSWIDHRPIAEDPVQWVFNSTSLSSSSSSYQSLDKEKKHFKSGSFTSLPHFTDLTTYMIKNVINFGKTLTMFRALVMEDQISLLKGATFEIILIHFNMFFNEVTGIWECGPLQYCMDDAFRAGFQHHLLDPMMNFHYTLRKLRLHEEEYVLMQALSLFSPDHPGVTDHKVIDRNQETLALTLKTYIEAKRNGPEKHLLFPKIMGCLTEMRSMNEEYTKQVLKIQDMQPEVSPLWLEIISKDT
Procedure: as §1, §2, §3, §4

zfPXR [2] = biological target: T2, zfPXR; test: cell-based
Procedure: as §3, §4

zfPXR [3] = biological target: T2, zfPXR; test: HG5LN Gal4-zfPXR luciferase reporter gene assay, agonism; type: cell-based, zebrafish
Procedure: as §1, §2, §3, §4

zfPXR [4] = biological target: T2, zfPXR; test: cell-based; design: Emax: dose or concentration left out as unconfirmed
Procedure: as §3, §4

With `CC1(C)[C@H](C(=O)O[C@H](C#N)c2cccc(Oc3ccccc3)c2)[C@@H]1C=C(Br)Br` [Deltamethrin] the EC50 (hPXR) was 1.8 ± 0.2 µM, the “hPXR agonism Max” value (hPXR; HG5LN-hPXR, maximal activity at 10 µM, % of maximal induced by 3 µM SR 12813, DMSO 19 ± 6) was 92% and the IC50 (zfPXR [1]) was 1.6 ± 0.2 µM. The remaining activity at 10 µM (zfPXR [1]; HG5LN, read-out: zfPXR antagonism Min) was 21%, the IC50 (zfPXR [2]) was 1.6 ± 0.06 µM and the “zfPXR antagonism Min” value (zfPXR [2]; ZFL-zfPXR, minimal activity at 10 µM, coexposure with 0.03 µM clotrimazole, % of maximal induced by 1 µM clotrimazole) was 3%.
With `C#C[C@]1(O)CC[C@H]2[C@@H]3CCC4=CCCC[C@@H]4[C@H]3C(=C)C[C@@]21CC` [Desogestrel, reference compound] the “hPXR agonism Max” value (hPXR) was 54%, the EC50 (zfPXR [3]; HG5LN-zfPXR cells, 16h exposure, n.a. = not active, read-out: zfPXR agonism EC50) was 0.13 ± 0.01 µM and the EC50 (zfPXR [4]) was 0.07 ± 0.004 µM.
In the case of `CCC(CC)Nc1c([N+](=O)[O-])cc(C)c(C)c1[N+](=O)[O-]` [Pendimethalin], the EC50 (hPXR) is reported as 3 ± 0.1 µM, the “hPXR agonism Max” value (hPXR) is reported as 91% and the EC50 (zfPXR [3]) is reported as 0.47 ± 0.1 µM. It also gave an EC50 (zfPXR [4]) of 0.12 ± 0.01 µM and an Emax (zfPXR [4]; read-out: zfPXR agonism Max) of 92%.
